Laboratory results reported in patent US20250248973A1, “CANNABINOID RECEPTOR 1 ANTAGONISTS/INVERSE AGONISTS AND USES THEREOF” (Corbus Pharmaceuticals, Inc., priority 2022, published 2025).

How the values were obtained:
[1] = target: Human CB1 Receptor-1 (hCB1) (Homo sapiens (Human), UniProt P21554); test: hCB1 Gai cyclic AMP (cAMP) TR-FRET assay, antagonism of EC80 CP55940 with forskolin; format: cell-based; details: hCB1 cells, 30 min pre-incubation
Method: (§1) Example 3. Biochemical Methods Human CB1 Receptor-1 (hCB1) and Human CB1 Receptor-1b (hCBib)
(§2) hCB1/hCB1 b Gai Cyclic AMP (cAMP) Assays: Cells were seeded in a 384-well plate at an appropriate density from frozen cells. The cAMP assays were performed according to the manufacturer's protocol using MULTISCREEN™ TR-FRET cAMP 1.0 No Wash Assay Kit. Cells (hCB1 or hCB1 b) were pre-incubated with customer compounds for 30 minutes at rt followed by addition of EC80 CP55940 concentration and Forskolin. Cells were then incubated for 20 minutes at 37C. The reaction was terminated by sequentially adding sequentially adding MULTISCREEN™ Eu-labeled cAMP and MULTISCREEN™ 650-labeled anti-cAMP antibody in lysis buffer. The plate was then incubated at rt for 30 minutes before reading fluorescent emissions at 620 nm and 665 with excitation at 314 nm on FlexStation III (Molecular Devices). The results are shown in Table 2 (“***” denotes an IC50<100 nM; “**” denotes an IC50 between 100 nM and 500 nM, and “*” denotes an IC50>500 nM).

[2] = target: Human CB1 Receptor-1b (hCB1b) (Homo sapiens (Human), UniProt P21554); test: hCB1b Gai cyclic AMP (cAMP) TR-FRET assay, antagonism of EC80 CP55940 with forskolin; format: cell-based; details: hCB1b cells, 30 min pre-incubation, read-out: CB1b IC50
Method: as §1, §2

Sequence of Human CB1 Receptor-1b (hCB1b) (P21554 other isoform, or with tags, fused parts or gaps): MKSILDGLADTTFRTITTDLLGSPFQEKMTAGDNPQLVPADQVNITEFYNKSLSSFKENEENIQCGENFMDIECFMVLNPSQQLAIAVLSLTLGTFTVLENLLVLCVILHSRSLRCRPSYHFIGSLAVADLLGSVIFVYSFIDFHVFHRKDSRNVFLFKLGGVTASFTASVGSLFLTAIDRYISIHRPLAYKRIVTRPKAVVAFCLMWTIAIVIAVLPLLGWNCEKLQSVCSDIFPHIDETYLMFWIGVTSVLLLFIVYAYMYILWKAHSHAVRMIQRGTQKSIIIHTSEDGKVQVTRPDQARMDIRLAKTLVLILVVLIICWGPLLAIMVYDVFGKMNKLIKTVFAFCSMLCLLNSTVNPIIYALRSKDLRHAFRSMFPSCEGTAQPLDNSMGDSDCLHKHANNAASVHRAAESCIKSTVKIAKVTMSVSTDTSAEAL
Sequence of Human CB1 Receptor-1 (hCB1) (P21554 whole entry): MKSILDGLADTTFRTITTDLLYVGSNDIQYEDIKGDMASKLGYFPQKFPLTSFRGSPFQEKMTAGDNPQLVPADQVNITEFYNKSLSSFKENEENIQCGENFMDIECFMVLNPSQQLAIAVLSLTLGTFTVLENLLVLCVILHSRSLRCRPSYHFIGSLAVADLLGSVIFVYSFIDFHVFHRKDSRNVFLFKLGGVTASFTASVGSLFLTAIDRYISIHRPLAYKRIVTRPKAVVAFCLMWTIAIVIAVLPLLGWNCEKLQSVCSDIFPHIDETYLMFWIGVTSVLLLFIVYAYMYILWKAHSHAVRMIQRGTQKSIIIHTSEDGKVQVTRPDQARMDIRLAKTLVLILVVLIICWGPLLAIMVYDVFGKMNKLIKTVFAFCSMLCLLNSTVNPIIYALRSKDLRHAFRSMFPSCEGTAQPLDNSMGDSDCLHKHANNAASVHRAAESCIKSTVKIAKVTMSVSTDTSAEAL

IC50 [1] [nM] | IC50 [2] [nM] | SMILES
100 to 500 | 100 to 500 | Cn1ncc(S(=O)(=O)N=C(NCCS(N)(=O)=O)N2C[C@H](c3ccccc3)C(c3ccc(Cl)cc3)=N2)n1 [Compound 73, (S)-3-(4-chlorophenyl)-N′-((2-methyl-2H-1,2,3-triazol-4-yl)sulfonyl)-4-phenyl-N-(2-sulfamoylethyl)-4,5-dihydro-1H-pyrazole-1-carboximidamide]
< 100 | < 100 | NS(=O)(=O)CCN/C(=N\S(=O)(=O)c1ccc(Cl)cc1)N1C[C@H](c2ccccc2)C(c2ccc(F)cc2)=N1 [Compound 45, (S,E)-N′-((4-chlorophenyl)sulfonyl)-3-(4-fluorophenyl)-4-phenyl-N-(2-sulfamoylethyl)-4,5-dihydro-1H-pyrazole-1-carboximidamide]
< 100 | < 100 | NS(=O)(=O)CCNC(=NS(=O)(=O)c1ccccc1Cl)N1C[C@H](c2ccccc2)C(c2ccc(Cl)cc2)=N1 [Compound 29, (S)-3-(4-chlorophenyl)-N′-((2-chlorophenyl)sulfonyl)-4-phenyl-N-(2-sulfamoylethyl)-4,5-dihydro-1H-pyrazole-1-carboximidamide]
< 100 | 100 to 500 | CN1CCN(S(=O)(=O)CCN/C(=N\S(=O)(=O)c2ccc(Cl)cc2)N2C[C@H](c3ccccc3)C(c3ccc(F)cc3)=N2)CC1 [Compound 163, (S,E)-N′-((4-chlorophenyl)sulfonyl)-3-(4-fluorophenyl)-N-(2-((4-methylpiperazin-1-yl)sulfonyl)ethyl)-4-phenyl-4,5-dihydro-1H-pyrazole-1-carboximidamide]
< 100 | < 100 | C[C@@H](CS(N)(=O)=O)N/C(=N\S(=O)(=O)c1ccc(Cl)cc1)N1CC(c2ccccc2)C(c2ccc(Cl)cc2)=N1 (stereo in doubt) [Compound 1, (R,E)-3-(4-chlorophenyl)-N′-((4-chlorophenyl)sulfonyl)-4-phenyl-N-((S)-1-sulfamoylpropan-2-yl)-4,5-dihydro-1H-pyrazole-1-carboximidamide]
< 100 | 100 to 500 | C[C@@H](CN/C(=N\S(=O)(=O)c1ccc(C(F)(F)F)cc1)N1C[C@H](c2ccccc2)C(c2ccc(Cl)cc2)=N1)S(N)(=O)=O [Compound 18, (S,E)-3-(4-chlorophenyl)-4-phenyl-N-((S)-2-sulfamoylpropyl)-N′-((4-(trifluoromethyl)phenyl)sulfonyl)-4,5-dihydro-1H-pyrazole-1-carboximidamide]
< 100 | < 100 | NS(=O)(=O)CCN/C(=N\S(=O)(=O)c1ccc(C(F)(F)F)cc1)N1C[C@H](c2ccccc2)C(c2ccc(F)cc2)=N1 [Compound 43, (S,E)-3-(4-fluorophenyl)-4-phenyl-N-(2-sulfamoylethyl)-N′-((4-(trifluoromethyl)phenyl)sulfonyl)-4,5-dihydro-1H-pyrazole-1-carboximidamide]
< 100 | 100 to 500 | C[C@H](CN/C(=N\S(=O)(=O)c1ccc(Cl)cc1)N1C[C@H](c2ccccc2)C(c2ccc(Cl)cc2)=N1)S(N)(=O)=O [Compound 5, (S,E)-3-(4-chlorophenyl)-N′-((4-chlorophenyl)sulfonyl)-4-phenyl-N-((R)-2-sulfamoylpropyl)-4,5-dihydro-1H-pyrazole-1-carboximidamide]
100 to 500 | 100 to 500 | C[C@H](CS(N)(=O)=O)N/C(=N\S(=O)(=O)c1ccc(C(F)(F)F)cc1)N1C[C@H](c2ccccc2)C(c2ccc(Cl)cc2)=N1 [Compound 23, (S,E)-3-(4-chlorophenyl)-4-phenyl-N-((R)-1-sulfamoylpropan-2-yl)-N′-((4-(trifluoromethyl)phenyl)sulfonyl)-4,5-dihydro-1H-pyrazole-1-carboximidamide]
100 to 500 | 100 to 500 | CN(CCNS(N)(=O)=O)/C(=N\S(=O)(=O)c1ccc(Cl)cc1)N1C[C@H](c2ccccc2)C(c2ccc(Cl)cc2)=N1 [Compound 173, (S,E)-3-(4-chlorophenyl)-N′-((4-chlorophenyl)sulfonyl)-N-methyl-4-phenyl-N-(2-(sulfamoylamino)ethyl)-4,5-dihydro-1H-pyrazole-1-carboximidamide]
< 100 | < 100 | C[C@@H](CN/C(=N\S(=O)(=O)c1ccc(F)cc1)N1C[C@H](c2ccccc2)C(c2ccc(Cl)cc2)=N1)S(N)(=O)=O [Compound 13, (S,E)-3-(4-chlorophenyl)-N′-((4-fluorophenyl)sulfonyl)-4-phenyl-N-((S)-2-sulfamoylpropyl)-4,5-dihydro-1H-pyrazole-1-carboximidamide]
100 to 500 | < 100 | CC(CN/C(=N\S(=O)(=O)c1ccc(Cl)cc1)N1C[C@H](c2ccccc2)C(c2ccc(Cl)cc2)=N1)NS(N)(=O)=O (stereo partly drawn) [Compound 185, (4S,E)-3-(4-chlorophenyl)-N′-((4-chlorophenyl)sulfonyl)-4-phenyl-N-(2-(sulfamoylamino)propyl)-4,5-dihydro-1H-pyrazole-1-carboximidamide]

Further lines, the compound ahead of its results:

SMILES | IC50 [1] [nM] | IC50 [2] [nM]
CN1CCN(S(=O)(=O)CCN/C(=N\S(=O)(=O)c2ccc(F)cc2)N2C[C@H](c3ccccc3)C(c3ccc(F)cc3)=N2)CC1 [Compound 165, (S,E)-3-(4-fluorophenyl)-N′-((4-fluorophenyl)sulfonyl)-N-(2-((4-methylpiperazin-1-yl)sulfonyl)ethyl)-4-phenyl-4,5-dihydro-1H-pyrazole-1-carboximidamide] | < 100 | 100 to 500
NS(=O)(=O)[C@@H]1CCN(/C(=N/S(=O)(=O)c2ccc(Cl)cc2)N2C[C@H](c3ccccc3)C(c3ccc(Cl)cc3)=N2)C1 (single isomer, unassigned) [Compound 136] | > 500 | > 500
C[C@H](CN/C(=N\S(=O)(=O)c1ccc(C(F)(F)F)cc1)N1C[C@H](c2ccccc2)C(c2ccc(F)cc2)=N1)S(N)(=O)=O (single isomer, unassigned) [Compound 47] | < 100 | < 100
NS(=O)(=O)[C@@H]1CC[C@@H](N/C(=N/S(=O)(=O)c2ccc(Cl)cc2)N2C[C@H](c3ccccc3)C(c3ccc(F)cc3)=N2)C1 [Compound 153, (S,Z)-N′-((4-chlorophenyl)sulfonyl)-3-(4-fluorophenyl)-4-phenyl-N-((1R,3R)-3-sulfamoylcyclopentyl)-4,5-dihydro-1H-pyrazole-1-carboximidamide] | 100 to 500 | < 100
C[C@@H](CN/C(=N\S(=O)(=O)c1ccc(F)cc1)N1C[C@H](c2ccccc2)C(c2ccc(F)cc2)=N1)S(N)(=O)=O [Compound 54, (S,E)-3-(4-fluorophenyl)-N′-((4-fluorophenyl)sulfonyl)-4-phenyl-N-((S)-2-sulfamoylpropyl)-4,5-dihydro-1H-pyrazole-1-carboximidamide] | < 100 | < 100
NS(=O)(=O)O[C@H]1C[C@@H](N/C(=N\S(=O)(=O)c2ccc(C(F)(F)F)cc2)N2C[C@@H](c3ccccc3)C(c3ccc(Cl)cc3)=N2)C1 [Compound 228, (1R,3s)-3-((R,E)-3-(4-chlorophenyl)-4-phenyl-N′-((4-(trifluoromethyl)phenyl)sulfonyl)-4,5-dihydro-1H-pyrazole-1-carboximidamido)cyclobutyl sulfamate] | > 500 | < 100
NS(=O)(=O)C1CCN(/C(=N/S(=O)(=O)c2ccc(Cl)cc2)N2C[C@H](c3ccccc3)C(c3ccc(Cl)cc3)=N2)CC1 [Compound 113, (S,Z)-1-((3-(4-chlorophenyl)-4-phenyl-4,5-dihydro-1H-pyrazol-1-yl)(((4-chlorophenyl)sulfonyl)imino)methyl)piperidine-4-sulfonamide] | > 500 | > 500
NS(=O)(=O)[C@@H]1CC[C@H](N/C(=N/S(=O)(=O)c2ccc(Cl)cc2)N2C[C@H](c3ccccc3)C(c3ccc(F)cc3)=N2)C1 [Compound 149, (S,Z)-N′-((4-chlorophenyl)sulfonyl)-3-(4-fluorophenyl)-4-phenyl-N-((1S,3R)-3-sulfamoylcyclopentyl)-4,5-dihydro-1H-pyrazole-1-carboximidamide] | 100 to 500 | 100 to 500
NS(=O)(=O)N[C@H]1C[C@@H](N/C(=N\S(=O)(=O)c2ccc(C(F)(F)F)cc2)N2C[C@H](c3ccccc3)C(c3ccc(Cl)cc3)=N2)C1 (single isomer, unassigned) [Compound 245] | 100 to 500 | < 100
NS(=O)(=O)[C@H]1CC[C@@H](N/C(=N/S(=O)(=O)c2ccc(Cl)cc2)N2C[C@H](c3ccccc3)C(c3ccc(Cl)cc3)=N2)CC1 (single isomer, unassigned) [Compound 119] | > 500 | > 500
NS(=O)(=O)[C@H]1CC[C@H](N/C(=N/S(=O)(=O)c2ccc(Cl)cc2)N2C[C@@H](c3ccccc3)C(c3ccc(Cl)cc3)=N2)CC1 (single isomer, unassigned) [Compound 122] | 100 to 500 | 100 to 500
